Test results published in US7211278B2, “Treating method for suppressing hair growth” (Kao Corporation, priority 1999, dated 2007).
Peptide text beside a SMILES is read from it.

Columns and labels:
[1] = target: T1, neutral endopeptidase of cultivated human fibroblast (Homo sapiens, UniProt P08473); experiment: Inhibition test on neutral endopeptidase activity of cultivated human fibroblast; assay type: biochemical; conditions: enzyme solution from human fibroblast, substrate glutaryl-Ala-Ala-Phe-4-methoxy-2-naphthylamine
T1 construct: followed by ultrasonic pulverization, whereby an enzyme solution was obtained; host or cells: normal human fibroblasts, Triton X-100 lysate after sonication
Excerpt: Test 1 Inhibition Test on Neutral Endopeptidase Activity of Cultivated Human Fibroblast
Normal human fibroblast commercially available from Dainippon Pharmaceutical Co., Ltd. was subcultured on a DME medium containing 10% bovine fatal serum and provided for the present test. The cells peeled by a rubber-policeman from a Petri dish were floated in a phosphate-buffered physiological saline, collected by a low-velocity centrifuge, and washed three times with the same physiological saline. The cells were floated in a 0.1% Triton X-100/0.2M tris-HCl buffer (pH 8.0), followed by ultrasonic pulverization, whereby an enzyme solution was obtained.
The enzyme activity was measured as follows: To 100 μL of an MES buffer (100 mM, pH 6.5) added with sodium chloride (300 mM), were added 2 μL of the enzyme solution, 1 μL of a solution of the invention compound and, as a substrate for the measurement of enzyme activity, 1 μL of 20 mM glutalyl-Ala-Ala-Phe-4-methoxy-2-naphthylamine, followed by reaction at 37° C. for 1 hour. Phosphoramldon was added to the reaction mixture to give its final concentration of 0.4 μM and then, the reaction was terminated. Aminopeptidase M having a final concentration of 20 mU was added to the reaction mixture and the resulting mixture were reacted at 37° C. for 15 minutes. The amount of the resulting 4-methoxy-2-naphthylamine was determined by measuring the fluorescent strength at excited wavelength of 340 nm and fluorescent wavelength of 425 nm by a fluorospectrophotometer and % inhibition of the compound against enzyme activity was determined.

C3H mice = experiment: Hair growth test (2) using mice; assay type: in vivo
Procedure: (1) Preparation of a Test Sample
Each of Compounds 1 to 3 and 7 was dissolved in a 50% ethanol solution, whereby a 1 mM solution was prepared.
Papain powder (produced by CALBIOCHEM-NOVABIOCHEM CORPORATION) was dissolved in purified water to prepare a 2% aqueous solution, followed by the addition of an equal amount of ethanol to prepare a 1% ethanol solution.
Trypsin powder (produced by Sigma Aldrich Corporation) was dissolved in Hanks' Balanced Salt Solution (produced by Gibco BRL) having 1 mM EDTA-4Na dissolved therein, followed by the addition of an equal amount of ethanol to prepare a 1% ethanol solution.
Chymotrypsin powder (produced by Sigma Aldrich Corporation) was treated in a manner similar to that employed for trypsin, whereby a 1% ethanol solution was prepared.
The back of 6-week-old C3H mice (each group consisting of 5 mice) was, shaved by 2×4 cm^2 by electric hair clippers or an electric shaver so as not to injure its skin. The sample was applied in an amount of 100 μL/once to the shaved portion twice a day for 4 weeks. To a control group, only a solvent was applied. Three weeks after depilation, the picture of the shaved portion was taken at a fixed magnification in order to observe the regrowth hair and the area of the hair regrowth (area of regrowth hair/shaved area) was compared with that of the control group by using an image analyzer.

[2] = compound 1 mM alone (Solvent column), 100 μL twice a day on shaved back
[3] = compound 1 mM combined with Papain 1%, 100 μL twice a day
[4] = proteolytic enzyme 1% alone (Solvent), 100 μL twice a day

T1 sequence (P08473 whole entry): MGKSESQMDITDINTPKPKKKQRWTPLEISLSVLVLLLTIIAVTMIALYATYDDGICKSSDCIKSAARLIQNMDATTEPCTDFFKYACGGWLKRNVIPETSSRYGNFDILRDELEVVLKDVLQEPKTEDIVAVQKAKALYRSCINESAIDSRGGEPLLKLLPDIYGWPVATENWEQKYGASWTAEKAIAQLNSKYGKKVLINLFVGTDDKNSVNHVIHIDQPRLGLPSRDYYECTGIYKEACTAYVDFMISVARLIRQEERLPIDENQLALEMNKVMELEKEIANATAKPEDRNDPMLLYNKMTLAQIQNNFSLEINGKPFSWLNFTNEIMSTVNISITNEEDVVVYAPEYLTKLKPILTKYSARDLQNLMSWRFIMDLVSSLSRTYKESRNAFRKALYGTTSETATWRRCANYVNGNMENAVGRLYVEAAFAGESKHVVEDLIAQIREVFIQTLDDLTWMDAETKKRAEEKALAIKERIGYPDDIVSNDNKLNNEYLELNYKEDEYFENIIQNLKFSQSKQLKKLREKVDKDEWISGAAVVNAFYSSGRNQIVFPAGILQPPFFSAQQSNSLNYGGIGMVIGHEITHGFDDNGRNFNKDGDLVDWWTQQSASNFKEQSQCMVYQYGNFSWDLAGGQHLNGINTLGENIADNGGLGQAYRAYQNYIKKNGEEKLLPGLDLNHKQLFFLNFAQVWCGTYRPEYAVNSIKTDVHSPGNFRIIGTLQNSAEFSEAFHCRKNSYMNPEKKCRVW

Molecule: Phe-Phe
- % inhibition ([1]; concentration 1 mM): 85.7%

Molecule: Phe-Asp
- % inhibition ([1]; concentration 1 mM): 85.4%

Molecule: CC(C)CC(NP(=O)(O)CCc1ccccc1)C(=O)NC(Cc1c[nH]c2ccccc12)C(=O)O (centres unmarked) [Compound 2]
- Hair growth inhibition 3 weeks after depilation (C3H mice; [2]): 59.1
- Hair growth inhibition 3 weeks after depilation (C3H mice; [3]): 80.3

Molecule: CCOC(=O)CNC(=O)C(Cc1ccc(-c2ccccc2)cc1)C(=O)OCC (centres unmarked) [Compound 11]
- inhibition at 100 µM ([1]; concentration 0.1 mM): 85.7 ± 2.2%

Molecule: CCOC(=O)CNC(=O)C(Cc1ccccc1)C(=O)OCC (centres unmarked) [Compound 9]
- inhibition at 100 µM ([1]; concentration 0.1 mM): 74.5 ± 9.3%

Molecule: COC(=O)[C@H](Cc1ccccc1)NC(=O)[C@@H](N)CC(=O)O [Aspartame, Asp-Phe-OMe (aspartame)] (H-Asp-Phe-OMe)
- inhibition at 1000 µM ([1]; concentration 1 mM): 30.2%

Molecule: Phe-Gly
- % inhibition ([1]; concentration 1 mM): 49.4%

Molecule: O=C(O)CCNC(=O)C(CS)Cc1ccccc1 (centres unmarked) [Compound 7]
- Hair growth inhibition 3 weeks after depilation (C3H mice; [2]): 59.7
- Hair growth inhibition 3 weeks after depilation (C3H mice; [3]): 77.9

Molecule: O=C(O)CC(=O)N[C@@H](Cc1ccccc1)C(=O)O [Compound 13]
- inhibition at 1000 µM ([1]; concentration 1 mM): 49.3 ± 1.2%

Molecule: Asp-Phe
- % inhibition ([1]; concentration 1 mM): 45.7%

Molecule: Trypsin
- Hair growth inhibition 3 weeks after depilation (C3H mice; [4]): 25.6

Molecule: O=C(O)CNC(=O)C(Cc1ccccc1)C(=O)O (centres unmarked) [Compound 10]
- inhibition at 100 µM ([1]; concentration 0.1 mM): 91.2 ± 3.7%

Molecule: Chymotrypsin
- Hair growth inhibition 3 weeks after depilation (C3H mice; [4]): 20.1

Molecule: CCOC(=O)CNC(=O)CC(=O)OCC [Compound 8]
- inhibition at 1000 µM ([1]; concentration 1 mM): 23.8 ± 2.7%

Molecule: O=C(O)CCNC(=O)C(Cc1ccccc1)C(=O)O (centres unmarked) [Compound 12]
- inhibition at 100 µM ([1]; concentration 0.1 mM): 69.5 ± 4.3%

Molecule: Phe-β-Ala
- % inhibition ([1]; concentration 0.1 mM): 92.6%

Molecule: Phe-Leu
- % inhibition ([1]; concentration 1 mM): 72.9%

B1: Papain: proteolytic enzyme, papain powder (CALBIOCHEM-NOVABIOCHEM), 1% ethanol solution (protein, UniProt P00784 134-345, looked up)
Papain: IPEYVDWRQKGAVTPVKNQGSCGSCWAFSAVVTIEGIIKIRTGNLNEYSEQELLDCDRRSYGCNGGYPWSALQLVAQYGIHYRNTYPYEGVQRYCRSREKGPYAAKTDGVRQVQPYNEGALLYSIANQPVSVVLEAAGKDFQLYRGGIFVGPCGNKVDHAVAAVGYGPNYILIKNSWGTGWGENGYIRIKRGTGNSYGVCGLYTSSFYPVKN
- Hair growth inhibition 3 weeks after depilation (C3H mice; [4]): 17.3
